Each structure is given as a SMILES string. Active and inactive are the calls of the source. The calls are words filed in the database; no cut-off is given here.

Drawing on ChEMBL document CHEMBL1147221, “Illudin S, the sole antiviral compound in mature fruiting bodies of Omphalotus illudens” (J Nat Prod, 2003), this text covers Activity for one compound.

Series [1] deals with Human alphaherpesvirus 1. In words: Antiviral activity against HSV1 infected in african green monkey CV1 cells at 10 ug/disk by filter disk method. It counts as functional, organism-based. Conditions: CV-1.
Series [2] can be described thus: Cytotoxicity against african green monkey CV1 cells at 10 ug/disk by neutral red staining. It counts as cell-based. As to conditions: chlorocebus aethiops, cv-1.
Series [3] concerns Human alphaherpesvirus 1. In words: Antiviral activity against HSV1 infected in african green monkey CV1 cells at 5 ug/disk by filter disk method. It counts as functional, organism-based. Conditions: CV-1.
Series [4] can be described thus: Cytotoxicity against african green monkey CV1 cells at 5 ug/disk by neutral red staining. It counts as cell-based. Conditions: chlorocebus aethiops, cv-1.
Series [5] has as its system Human alphaherpesvirus 1. In words: Antiviral activity against HSV1 infected in african green monkey CV1 cells at 2.5 ug/disk by filter disk method. It counts as functional, organism-based. As to conditions: CV-1.
Series [6] is described as follows: Cytotoxicity against african green monkey CV1 cells at 2.5 ug/disk by neutral red staining. In kind it is cell-based. As to conditions: chlorocebus aethiops, cv-1.
The test system of series [7] is Human alphaherpesvirus 1. In words: Antiviral activity against HSV1 infected in african green monkey CV1 cells at 1 ug/disk by filter disk method. In kind it is functional, organism-based. As to conditions: CV-1.
A short description of series [8]: Cytotoxicity against african green monkey CV1 cells at 1 ug/disk by neutral red staining. It counts as cell-based. As to conditions: chlorocebus aethiops, cv-1.
Series [9] deals with Human alphaherpesvirus 1. In words: Antiviral activity against HSV1 infected in african green monkey CV1 cells at 0.5 ug/disk by filter disk method. It counts as functional, organism-based. As to conditions: CV-1.
Series [10] is described as follows: Cytotoxicity against african green monkey CV1 cells at 0.5 ug/disk by neutral red staining. Conditions: chlorocebus aethiops, cv-1. In kind it is cell-based.
For series [11], the system named is Human alphaherpesvirus 1. In words: Antiviral activity against HSV1 infected in african green monkey CV1 cells at 0.25 ug/disk by filter disk method. In kind it is functional, organism-based. Conditions: CV-1.
Series [12] in a line: Cytotoxicity against african green monkey CV1 cells at 0.25 ug/disk by neutral red staining. It counts as cell-based. As to conditions: chlorocebus aethiops, cv-1.
The subject of series [13] is Human alphaherpesvirus 1. In words: Antiviral activity against HSV1 infected in african green monkey CV1 cells at 0.15 ug/disk by filter disk method. It counts as functional, organism-based. As to conditions: CV-1.
Series [14] in a line: Cytotoxicity against african green monkey CV1 cells at 0.15 ug/disk by neutral red staining. In kind it is cell-based. Conditions: chlorocebus aethiops, cv-1.
Series [15] concerns Human alphaherpesvirus 1. In words: Antiviral activity against HSV1 infected in african green monkey CV1 cells at 0.1 ug/disk by filter disk method. In kind it is functional, organism-based. Conditions: CV-1.
Series [16] in a line: Cytotoxicity against african green monkey CV1 cells at 0.1 ug/disk by neutral red staining. It counts as cell-based. As to conditions: chlorocebus aethiops, cv-1.
Series [17] concerns Human alphaherpesvirus 1. In words: Antiviral activity against HSV1 infected in african green monkey CV1 cells at 0.05 ug/disk by filter disk method. As to conditions: CV-1. In kind it is functional, organism-based.
Series [18] is described as follows: Cytotoxicity against african green monkey CV1 cells at 0.05 ug/disk by neutral red staining. Conditions: chlorocebus aethiops, cv-1. It counts as cell-based.
Series [19] in a line: Cytotoxicity against african green monkey CV1 cells at 0.025 ug/disk by neutral red staining. In kind it is cell-based. Conditions: chlorocebus aethiops, cv-1.
Series [20] in a line: Cytotoxicity against african green monkey CV1 cells at 0.015 ug/disk by neutral red staining. In kind it is cell-based. As to conditions: chlorocebus aethiops, cv-1.
For series [21], the system named is Human alphaherpesvirus 1. In words: Antiviral activity against HSV1 infected in african green monkey CV1 cells at 0.010 ug/disk by filter disk method. As to conditions: CV-1. In kind it is functional, organism-based.
Series [22] is described as follows: Cytotoxicity against african green monkey CV1 cells at 0.010 ug/disk by neutral red staining. As to conditions: chlorocebus aethiops, cv-1. It counts as cell-based.
The subject of series [23] is Human alphaherpesvirus 1. In words: Antiviral activity against HSV1 infected in african green monkey CV1 cells at 0.005 ug/disk by filter disk method. Conditions: CV-1. It counts as functional, organism-based.
Series [24] can be described thus: Cytotoxicity against african green monkey CV1 cells at 0.005 ug/disk by neutral red staining. It counts as cell-based. As to conditions: chlorocebus aethiops, cv-1.

In the case of `CC1=C2C(=C[C@@](C)(CO)[C@@H]2O)C(=O)[C@](C)(O)C12CC2` [ILLUDIN], the result with Human alphaherpesvirus 1 [1], with Human alphaherpesvirus 1 [3], with Human alphaherpesvirus 1 [5], in the series on Human alphaherpesvirus 1 [7], in the series with Human alphaherpesvirus 1 [9] and in the series with Human alphaherpesvirus 1 [11] was inactive. For the same compound, the result with Human alphaherpesvirus 1 [21] and in the series with Human alphaherpesvirus 1 [23] was inactive. The Activity entry in [2], in series [4], in series [6], in series [8], in series [10] and in series [12] was “Toxic” throughout. Moreover, the Activity result in series [14], in series [16], in series [18], in series [19], in series [20] and in [22] was “Non-toxic” each time. Further, in series [24], the Activity result is given as “Non-toxic”. The result with Human alphaherpesvirus 1 [13], in the series on Human alphaherpesvirus 1 [15] and in the series with Human alphaherpesvirus 1 [17] was Active.
